Experimental data reported in patent US20100292205A1, “Pyrimidone Compounds As GSK-3 Inhibitors” (PFIZER INC., priority 2006, published 2010).
Read-outs that look alike come from different tables or passages of the source.

Biological target: T1, Recombinant human GSK3β (Homo sapiens, UniProt P49841)
T1 construct: His-tag; made in house; host or cells: Sf9 insect cells / baculovirus
Test: GSK-3β (Glycogen Synthase Kinase) cell free enzyme assay
Format: biochemical
Details: for inhibition at 1 µM: read-out: Percent inhibition at 1 μM; for IC50: cell free enzyme assay
Procedure, shortened: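 Recombinant human GSK3β, expressed in SF9/baculovirus cells and His-tag purified on Ni-NTA Superflow, was preincubated with test agent for 30 minutes at room temperature. Substrate mix was then added to start the reaction in 8 mM MOPS (pH 7.0), 10 mM magnesium acetate, 0.2 mM EDTA, 1 mM DTT, 2 uM cold ATP, 0.025 uCi/well [33P]ATP (120 uL) and 1.0 uM biotinylated peptide. Reactions ran at RT for 60 min.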

T1 sequence (P49841 whole entry): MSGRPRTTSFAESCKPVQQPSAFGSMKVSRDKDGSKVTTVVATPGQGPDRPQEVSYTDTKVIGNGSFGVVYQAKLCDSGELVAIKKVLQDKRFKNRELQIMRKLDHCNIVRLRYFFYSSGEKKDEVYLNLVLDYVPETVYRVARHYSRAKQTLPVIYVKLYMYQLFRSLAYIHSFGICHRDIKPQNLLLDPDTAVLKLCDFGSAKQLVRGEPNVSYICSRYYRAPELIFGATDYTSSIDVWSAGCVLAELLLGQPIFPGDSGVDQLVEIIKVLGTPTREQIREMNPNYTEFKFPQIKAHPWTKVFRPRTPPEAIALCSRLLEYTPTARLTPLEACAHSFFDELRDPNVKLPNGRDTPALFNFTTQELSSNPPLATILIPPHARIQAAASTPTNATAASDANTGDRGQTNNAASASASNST

Row | Compound | inhibition at 1 µM (1 μM, Examples 157-199) | IC50 (Examples 62-155) | further results
1 | CN(c1nc(-c2ccncc2F)cc(=O)n1C)[C@H]1[C@@H]2CN(C(=O)c3ccc(C#N)cc3)C[C@@H]21 [Example 136, 4-{[(1R,5S,6s)-6-{[4-(3-Fluoropyridin-4-yl)-1-methyl-6-oxo-1,6-dihydropyrimidin-2-yl](methyl)amino}-3-azabicyclo[3.1.0]hex-3-yl]carbonyl}benzonitrile] |  | 42.6 nM | 
2 | CN(c1nc(-c2ccncc2F)cc(=O)n1C)[C@H]1[C@@H]2CN(c3nnnn3-c3ccccc3F)C[C@@H]21 [Example 275, 2-[{(1R,5S,6s)-3-[1-(2-Fluorophenyl)-1H-tetrazol-5-yl]-3-azabicyclo[3.1.0]hex-6-yl}(methyl)amino]-6-(3-fluoropyridin-4-yl)-3-methylpyrimidin-4(3H)-one] |  |  | IC50 (Examples 265-291): 1.12 nM
3 | Cn1c(NC2CCN(S(=O)(=O)c3ccccc3)C2)nc(-c2ccncc2)cc1=O (stereo not shown) [Example 174, 3-Methyl-2-{[1-(phenylsulfonyl)pyrrolidin-3-yl]amino}-6-pyridin-4-ylpyrimidin-4(3H)-one] | 95% |  | 
4 | Cn1c(NCC2OCCc3ccccc32)nc(-c2ccncc2)cc1=O (stereo not shown) [Example 3, 2-[(3,4-dihydro-1H-Isochromen-1-ylmethyl)amino]-3-methyl-6-pyridin-4-ylpyrimidin-4(3H)-one] |  |  | IC50 (Examples 1-35): 23 nM
5 | CCN(c1nc(-c2ccncc2)cc(=O)n1C)C1CCN(S(=O)(=O)c2ccccc2)CC1 [Example 187, 2-{Ethyl[1-(phenylsulfonyl)piperidin-4-yl]amino}-3-methyl-6-pyridin-4-ylpyrimidin-4(3H)-one] | 102% |  | 
6 | Cn1c(NC2CCCN(C(=O)c3ccccc3)C2)nc(-c2ccncc2)cc1=O (stereo not shown) [Example 66, 2-[(1-Benzoylpiperidin-3-yl)amino]-3-methyl-6-pyridin-4-ylpyrimidin-4(3H)-one] |  | 1000 nM | 
7 | CN(c1nc(-c2ccncc2)cc(=O)n1C)C1CCN(C(=O)OC(C)(C)C)C1 (stereo not shown) [Example 11, tert-butyl 3-[Methyl(1-methyl-6-oxo-4-pyridin-4-yl-1,6-dihydropyrimidin-2-yl)amino]pyrrolidine-1-carboxylate] |  |  | IC50 (Examples 1-35): 17.7 nM
8 | Cn1c(N2CC[C@@H]3CN(S(=O)(=O)c4ccccc4)C[C@@H]32)nc(-c2ccncc2)cc1=O [Example 172, 3-Methyl-2-[(3a,R6,aR)-5-(phenylsulfonyl)hexahydro-pyrrolo[34-b]pyrrol-1(2H)-yl]-6-pyridin-4-ylpyrimidin-4(3H)-one] | 81% |  | 
9 | CN(c1nc(-c2ccncc2)cc(=O)n1C)C1CCN(C(=O)c2ccccc2)C1 (stereo not shown) [Example 70, 2-[(1-Benzoylpyrrolidin-3-yl)(methyl)amino]-3-methyl-6-pyridin-4-ylpyrimidin-4(3H)-one] |  | 170 nM | 
10 | Cn1c(NCC2CCN(Cc3ccccc3)C2)nc(-c2ccncc2)cc1=O (stereo not shown) [Example 261, 2-{[(1-Benzylpyrrolidin-3-yl)methyl]amino}-3-methyl-6-pyridin-4-ylpyrimidin-4(3H)-one] |  |  | inhibition at 1 µM (1 μM, Examples 236-262): 70%
11 | CN(c1nc(-c2ccncc2F)cc(=O)n1C)[C@H]1[C@@H]2CN(C(=O)c3ccccc3)C[C@@H]21 [Example 150, 2-{[(1R,5S,6s)-3-Benzoyl-3-azabicyclo[3.1.0]hex-6-yl](methyl)amino}-6-(3-fluoropyridin-4-yl)-3-methylpyrimidin-4(3H)-one] |  | 1.51 nM | 
12 | Cn1c(NC2CCN(C(=O)OC(C)(C)C)C2)nc(-c2ccncc2)cc1=O (stereo not shown) [Example 24, tert-butyl 3-[(1-Methyl-6-oxo-4-pyridin-4-yl-1,6-dihydropyrimidin-2-yl)amino]pyrrolidine-1-carboxylate] |  |  | IC50 (Examples 1-35): 43 nM
13 | Methyl (1R,5S)-3-(1-methyl- 6-oxo-4-pyridin-4-yl-16- dihydropyrimidin-2-yl)-38- diazabicyclo[3.2.1]octane-8- carboxylate [Example 201] |  |  | Percent inhibition at 1 μM (1 μM, Examples 201-221): 89%
14 | Cc1ccc(C(=O)N2C[C@@H]3[C@H](C2)[C@H]3N(C)c2nc(-c3ccncc3F)cc(=O)n2C)cc1F [Example 133, 2-{[(1R,5S,6s)-3-(3-Fluoro-4-methylbenzoyl)-3-azabicyclo[3.1.0]hex-6-yl](methyl)amino}-6-(3-fluoropyridin-4-yl)-3-methylpyrimidin-4(3H)-one] |  | 2.91 nM | 
15 | CCN(c1nc(-c2ccncc2)cc(=O)n1C)C1CCCN(C(=O)c2ccccc2)C1 (stereo not shown) [Example 73, 2-[(1-Benzoylpiperidin-3-yl)(ethyl)amino]-3-methyl-6-pyridin-4-ylpyrimidin-4(3H)-one] |  | 345 nM | 
16 | COc1ccc(C(=O)N2C[C@@H]3[C@H](C2)[C@H]3N(C)c2nc(-c3ccncc3F)cc(=O)n2C)c(OC)c1 [Example 151, 2-{[(1R,5S,6s)-3-(2,4-Dimethoxybenzoyl)-3-azabicyclo[3.1.0]hex-6-yl](methyl)amino}-6-(3-fluoropyridin-4-yl)-3-methylpyrimidin-4(3H)-one] |  | 1.22 nM | 
17 | CN1CCCC(N(C)c2nc(-c3ccncc3)cc(=O)n2C)CC1 (stereo not shown) [Example 243, 3-Methyl-2-[methyl(1-methylazepan-4-yl)amino]-6-pyridin-4-ylpyrimidin-4(3H)-one] |  |  | inhibition at 1 µM (1 μM, Examples 236-262): 60%

Continued, in another order:

Row | inhibition at 1 µM (1 μM, Examples 157-199) | IC50 (Examples 62-155) | Compound | further results
18 | 99% |  | Cn1c(NC2CCCN(S(=O)(=O)c3ccccc3)CC2)nc(-c2ccncc2)cc1=O (stereo not shown) [Example 170, 3-Methyl-2-{[1-(phenylsulfonyl)azepan-4-yl]amino}-6-pyridin-4-ylpyrimidin-4(3H)-one] | 
19 | 49% |  | Cn1c(NC2CCN(S(=O)(=O)c3ccccc3)CC2)nc(-c2ccncc2)cc1=O [Example 175, 3-Methyl-2-{[1-(phenylsulfonyl)piperidin-4-yl]amino}-6-pyridin-4-ylpyrimidin-4(3H)-one] | 
20 | 51% |  | Cn1c(NC2CCCCN(S(=O)(=O)c3ccccc3)C2)nc(-c2ccncc2)cc1=O (stereo not shown) [Example 173, 3-Methyl-2-{[1-(phenylsulfonyl)azepan-3-yl]amino}-6-pyridin-4-ylpyrimidin-4(3H)-one] | 
21 | 96% |  | CN(c1nc(-c2ccncc2)cc(=O)n1C)C1CCCN(S(=O)(=O)c2ccccc2)CC1 (stereo not shown) [Example 181, 3-Methyl-2-{methyl[1-(phenylsulfonyl)azepan-4-yl]amino}-6-pyridin-4-ylpyrimidin-4(3H)-one] | 
22 |  | 8.81 nM | CN(c1nc(-c2ccncc2F)cc(=O)n1C)[C@H]1[C@@H]2CN(C(=O)c3ccoc3)C[C@@H]21 [Example 105, 6-(3-Fluoropyridin-4-yl)-2-{[(1R,5S,6s)-3-(3-furoyl)-3-azabicyclo[3.1.0]hex-6-yl](methyl)amino}-3-methylpyrimidin-4(3H)-one] | 
23 |  | 102 nM | Cc1c(C(=O)N2C[C@@H]3[C@H](C2)[C@H]3N(C)c2nc(-c3ccncc3F)cc(=O)n2C)cnn1-c1ccccc1 [Example 155, 6-(3-Fluoropyridin-4-yl)-3-methyl-2-(methyl{(1R,5S,6s)-3-[(5-methyl-1-phenyl-1H-pyrazol-4-yl)carbonyl]-3-azabicyclo[3.1.0]hex-6-yl}amino)pyrimidin-4(3H)-one] | 
24 |  | 5.46 nM | CCC(=O)N1C[C@@H]2[C@H](C1)[C@H]2N(C)c1nc(-c2ccncc2F)cc(=O)n1C [Example 135, 6-(3-Fluoropyridin-4-yl)-3-methyl-2-{methyl[(1R,5S,6s)-3-propionyl-3-azabicyclo[3.1.0]hex-6-yl]amino}pyrimidin-4(3H)-one] | 
25 | 95% |  | CCN(C[C@H]1CCCN1S(=O)(=O)c1ccccc1)c1nc(-c2ccncc2)cc(=O)n1C [Example 189, 2-(Ethyl{[(2R)-1-(phenylsulfonyl)pyrrolidin-2-yl]methyl}amino)-3-methyl-6-pyridin-4-ylpyrimidin-4(3H)-one] | 
